# Data: the supplement of paper PMC11208160
# Test: recombinant barcode read abundance after kanamycin selection (control-corrected) (log10(CPM+1)); higher = more efficient recombination; sequences stand for … in AGTGCAGAGAAAATCGGCCAGTTTTCTCTGCCTGCAGTCCGCATGCCGT…AGATTTATGCAGCGGACTGCCTTTCTCCCAAAGTGATAAACCGGACAGTATCATGGACCGGTTTTCCCGGTAATCCGTATTTGCAAGGTTGGTTTCACT; site = the 11-nt target
# Method: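 Pooled E. coli target-specificity screen for the IS621 bridge recombinase. Each library plasmid pairs an 11-nt target (CT core) with a bridge RNA whose target-binding loop (9-nt LTG + 4-nt RTG) is reprogrammed; the rest of the 177-nt WT IS621 bridge RNA scaffold is fixed. The plasmid is co-electroporated with a WT donor plasmid; recombinase is induced with 0.1 mM IPTG and recombinants are selected on kanamycin. Recombinant barcodes are sequenced, converted to CPM, averaged over two biological replicates and corrected by the unselected control CPM. Molecule = full bridge RNA written as DNA: LTG = specificity nt 1-9, RTG = reverse complement of specificity nt 8-11, in the WT scaffold.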
# 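Further: IS621 recombinase and bridge RNA in Escherichia coli cells.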
row,Sequence,recombinant barcode read abundance (log10)
1,CTCCGGTCTTGGGTTCTAACCTGTTGCTT (site CTCCGGTCTAA),1.77
2,GGATTGTCTTGGGTTCTAACCTGTTGCTT (site GGATTGTCTAA),0.742
3,GATAGTACTTGGGTTCTAACCTGTTGCCT (site GATAGTGCTAG),0.0995
4,TCTGAGTCTTGGGTTCTAACCTGTTGCTG (site GCTGAGGCTCA),0.141
5,AGACGTCCTTGGGTTCTAACCTGTTGCTT (site AGACTTCCTAA),0.15
6,AGTGCGCCTTGGGTTCTAACCTGTTGCTA (site AGTGCGCCTTA),0.341
7,TCACGGACTTGGGTTCTAACCTGTTGCCT (site TCGCGGACTAG),0.0352
8,TGGTACCCTTGGGTTCTAACCTGTTGCCT (site TGTTACCCTAG),0.126
9,CGCCCTACTTGGGTTCTAACCTGTTGCTT (site CGCCCTACTAA),0.311
10,TTAGTAGCTTGGGTTCTAACCTGTTGCCT (site TTAGTTGCTAG),0.0874
11,GCTTGGACTTGGGTTCTAACCTGTTGCCT (site GCTTGGACTAG),0.467
12,CTAGACCCTTGGGTTCTAACCTGTTGCCT (site ATAGACCCTAG),0.347
13,GGTCATGCTTGGGTTCTAACCTGTTGCCT (site GGTCATACTAG),0.169
14,CGTGTAACTTGGGTTCTAACCTGTTGCCT (site CGTGTAACTAG),0.332
15,CACCACCCTTGGGTTCTAACCTGTTGCGG (site GGTACTTCTAA),0.358
16,CATCCGCCTTGGGTTCTAACCTGTTGCCT (site CATCCGTCTAG),0.0465
17,CTACAATCTTGGGTTCTAACCTGTTGCTT (site CTACAATCTAA),1.17
18,TCGCTAGCTTGGGTTCTAACCTGTTGCGG (site CCGCTACCTCC),1.83
19,GAGAGATCTTGGGTTCTAACCTGTTGCCT (site GAGACATCTAG),0.157
20,TAACCTTCTTGGGTTCTAACCTGTTGCCT (site TAACCTGCTAG),0.00987
21,AAGGCTTCTTGGGTTCTAACCTGTTGCCT (site AAGGCTACTAG),0.171
22,CTACGTTCTTGGGTTCTAACCTGTTGCCT (site CCACGTTCTAG),0.761

row,Sequence,recombinant barcode read abundance (log10)
1,GTTTCTACTTGGGTTCTAACCTGTTGCTA (site GTTTCTACTTA),0.0482
2,GTTTGTCCTTGGGTTCTAACCTGTTGCTT (site GTTTGCCCTAA),0.0342
3,CGATCTACTTGGGTTCTAACCTGTTGCAG (site CGATCTACTCT),0.0308
4,CTACTAACTTGGGTTCTAACCTGTTGCTT (site CTACTAACTAC),0.0509
5,GCCGAGACTTGGGTTCTAACCTGTTGCCT (site GCCGAAACTAG),0.48
6,AATGCTCCTTGGGTTCTAACCTGTTGCGT (site AATGCTCCTAT),0.177
7,CTCATAGCTTGGGTTCTAACCTGTTGCGA (site TGAGGGACTAG),0.0808
8,CTCCGTCCTTGGGTTCTAACCTGTTGCTT (site CTCCGACCTAA),0.106
9,GTTGGCCCTTGGGTTCTAACCTGTTGCCT (site GTTGGCCCTAG),1.94
10,AAGCGTGCTTGGGTTCTAACCTGTTGCCT (site AAGCGTTCTAG),0.216
11,TTAGTGGCTTGGGTTCTAACCTGTTGCCT (site TTAGTGGCTAG),0.978
12,TCTAATTCTTGGGTTCTAACCTGTTGCGT (site TCTAATTCTAC),0.095
13,AATGCTTCTTGGGTTCTAACCTGTTGCTT (site GATGCTTCTAA),0.143
14,GGCACAGCTTGGGTTCTAACCTGTTGCCT (site GGCACCGCTAG),0.171
15,TCGCAAGCTTGGGTTCTAACCTGTTGCCT (site TCGCAAGCTAG),0.559
16,CTCAAAGCTTGGGTTCTAACCTGTTGCGA (site CTCAAAGCTTC),1.38
17,CGTTGCCCTTGGGTTCTAACCTGTTGCCT (site CCTTGCCCTAG),0.0881
18,AAGCGTACTTGGGTTCTAACCTGTTGCCT (site AAGCGTACTAG),1.92
19,CTAAGCTCTTGGGTTCTAACCTGTTGCCT (site CTAAGCTCTAG),0.756
20,TTCGCATCTTGGGTTCTAACCTGTTGCTT (site TTCGCATCTAA),0.178
21,ATAGAATCTTGGGTTCTAACCTGTTGCTC (site TGCCTGCCTCT),0.204
22,CGGAGCCCTTGGGTTCTAACCTGTTGCCT (site CAAAGCCCTAG),0.0117

row,Sequence,recombinant barcode read abundance (log10)
1,AAGCGCTCTTGGGTTCTAACCTGTTGCTG (site TTCTATGCTAC),0.542
2,TCCACACCTTGGGTTCTAACCTGTTGCCT (site TCCACAGCTAG),0.0788
3,GAGACAACTTGGGTTCTAACCTGTTGCCT (site GGGACAGCTAG),0.303
4,TGAGAACCTTGGGTTCTAACCTGTTGCCT (site AGAGAACCTAG),0.666
5,CCGGAGCCTTGGGTTCTAACCTGTTGCCT (site CCGAAGCCTAG),1.42
6,GTGATCCCTTGGGTTCTAACCTGTTGCAG (site GTGAACCCTCT),0.184
7,TAGTAGTCTTGGGTTCTAACCTGTTGCTT (site TAGTAGTCTAA),1.55
8,TCCGAGCCTTGGGTTCTAACCTGTTGCAT (site TCCGAGCCTAT),1.98
9,CCAAGCTCTTGGGTTCTAACCTGTTGCCT (site CCAAGCTCTAG),1.32
10,CATTATTCTTGGGTTCTAACCTGTTGCCT (site CATAATTCTAG),0.04
11,TCTAATTCTTGGGTTCTAACCTGTTGCGT (site TCTCATTCTAC),0.162
12,GTGTATACTTGGGTTCTAACCTGTTGCCT (site GTGTATACTAG),1.24
13,AATAACTCTTGGGTTCTAACCTGTTGCCT (site GATAACTCTAG),0.111
14,GACGGATCTTGGGTTCTAACCTGTTGCTT (site GACGGATCTAT),0.15
15,CCGCGAGCTTGGGTTCTAACCTGTTGCCG (site CCGCGAGCTCG),0.599
16,CATTCTGCTTGGGTTCTAACCTGTTGCCT (site CACTCTGCTAG),0.0741
17,TAGCCGGCTTGGGTTCTAACCTGTTGCCT (site TAGCCGGCTAG),0.907
18,ACTGGGTCTTGGGTTCTAACCTGTTGCGT (site ACTGGGTCTAC),2.66
19,CATTGGACTTGGGTTCTAACCTGTTGCCT (site CAGTGGACTAG),0.084
20,GATAGTTCTTGGGTTCTAACCTGTTGCCT (site GATAGTTCTAG),0.264
21,AAAGTGTCTTGGGTTCTAACCTGTTGCCT (site AAAGTGTCTAG),2.97
22,TCGGCGACTTGGGTTCTAACCTGTTGCCT (site TCCGCGACTAG),0.0866
